Test results reported in patent US20240391948A1, “NOVEL COMPOUND THAT INHIBITS TNF-ALPHA GENERATION AND INFLAMMASOME ACTIVITY AND PREPARATION METHOD THEREFOR” (SHAPERON INC., priority 2021, published 2024).
pIC50: −log10 of the molar value.

Key:
Type in all cases: cell-based
[1] = system: U937 cells (human monocytic cell line); assay: BzATP-induced IL-1β secretion inhibition in PMA-differentiated U937 cells; details: U-937, U937 cells differentiated with PMA, read-out: IL-1β production inhibition grade (IC50)
In short: (§1)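 Inhibition is given as IC50 (μM) in A-D bands, using distinct thresholds for TNF-α and for IL-1β. Secretion followed Pam2CSK4 stimulation (TNF-α) or BzATP stimulation (IL-1β) of compound-pretreated, PMA-differentiated U937 macrophages.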

[2] = system: J774A.1 (Mouse BALB/c monocyte macrophage cell line) cells; assay: LPS+ATP-induced IL-1β secretion inhibition in J774A.1 cells; details: J774.A1, 1 μM compound, graded compared to taurodeoxycholic acid (positive control), read-out: IL-1β production inhibition grade
In short: (§2)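 Grades (A >100%, B 50–100%, C 20–50%, D <20%) express cytokine suppression by 1 μM compound relative to taurodeoxycholic acid. LPS-induced TNF-α and LPS+ATP-induced IL-1β secretion were measured in murine J774A.1 macrophage cells.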

[3] = system: J774A.1 (Mouse BALB/c monocyte macrophage cell line) cells; assay: LPS-induced TNF-α secretion inhibition in J774A.1 cells; details: J774.A1, 1 μM compound, graded compared to taurodeoxycholic acid (positive control), read-out: TNF-α production inhibition grade
In short: as §2

[4] = system: U937 cells (human monocytic cell line); assay: Pam2CSK4-induced TNF-α secretion inhibition in PMA-differentiated U937 cells; details: U-937, U937 cells differentiated with PMA, read-out: TNF-α production inhibition grade (IC50)
In short: as §1

SMILES	pIC50 [1]	inhibition at 1 µM [2]	inhibition at 1 µM [3]	pIC50 [4]
CC[C@H]1[C@@H](O)[C@@H]2[C@H](C[C@H](O)[C@]3(C)[C@@H]([C@H](C)CCC(=O)N4CC(S(=O)(=O)O)C4)CC[C@@H]23)[C@@]2(C)CC[C@@H](O)C[C@@H]12 [NC50012]	> 7.30	> 100%	< 20%	5.70 to 6.00
CC[C@H]1[C@@H](O)[C@@H]2[C@H](CC[C@]3(C)[C@@H]([C@H](C)CCC(=O)N[C@H](CO)CS(=O)(=O)O)CC[C@@H]23)[C@@]2(C)CC[C@@H](O)C[C@@H]12 [NC40025]	7.00 to 7.30	20 to 50%	20 to 50%	6.00 to 6.30
C[C@H](CCC(=O)N[C@@H](CO)CS(=O)(=O)O)[C@H]1CC[C@H]2[C@@H]3CC[C@@H]4C[C@H](O)CC[C@]4(C)[C@H]3CC[C@]12C [NC10080]	6.70 to 7.00	> 100%	< 20%	6.00 to 6.30
CC[C@H]1[C@@H](O)[C@@H]2[C@H](CC[C@]3(C)[C@@H]([C@H](C)CCC(=O)N4CC(S(=O)(=O)O)C4)CC[C@@H]23)[C@@]2(C)CC[C@@H](O)C[C@@H]12 [NC40012]	≤ 6.70	50 to 100%	< 20%	6.00 to 6.30
CC(C)C[C@@H](CS(=O)(=O)O)NC(=O)CC[C@@H](C)[C@H]1CC[C@H]2[C@@H]3CC[C@@H]4CC(=O)CC[C@]4(C)[C@H]3CC[C@]12C [NC30030]	≤ 6.70	20 to 50%	< 20%	6.00 to 6.30
CC[C@H]1[C@@H](O)[C@@H]2[C@H](CC[C@]3(C)[C@@H]([C@H](C)CCC(=O)NC[C@@H](C)S(=O)(=O)O)CC[C@@H]23)[C@@]2(C)CC[C@@H](O)C[C@@H]12 [NC40023]	≤ 6.70	< 20%	< 20%	6.00 to 6.30
C[C@H](CCC(=O)NCCCO)[C@H]1CC[C@H]2[C@@H]3CC[C@@H]4C[C@H](O)CC[C@]4(C)[C@H]3CC[C@]12C [NC10054]	7.00 to 7.30	50 to 100%	< 20%	5.70 to 6.00
CC[C@H]1[C@@H](O)[C@@H]2[C@H](C[C@H](O)[C@]3(C)[C@@H]([C@H](C)CCC(=O)N[C@H](CC(C)C)CS(=O)(=O)O)CC[C@@H]23)[C@@]2(C)CC[C@@H](O)C[C@@H]12 [NC50031]	7.00 to 7.30	50 to 100%	< 20%	≤ 5.70
CC[C@H]1[C@@H](O)[C@@H]2[C@H](CC[C@]3(C)[C@@H]([C@H](C)CCC(=O)N(CCS(=O)(=O)O)Cc4cccnc4)CC[C@@H]23)[C@@]2(C)CC[C@@H](O)C[C@@H]12 [NC40036]	7.00 to 7.30	50 to 100%	< 20%	5.70 to 6.00
C[C@H](CCC(=O)N[C@H](CS(=O)(=O)O)c1ccccc1)[C@H]1CC[C@H]2[C@@H]3CC[C@@H]4C[C@H](O)CC[C@]4(C)[C@H]3CC[C@]12C [NC10069]	> 7.30	> 100%	< 20%	> 6.30
C[C@H](CCC(=O)N1CCC(S(=O)(=O)O)CC1)[C@H]1CC[C@H]2[C@@H]3CC[C@@H]4C[C@H](O)CC[C@]4(C)[C@H]3C[C@H](O)[C@]12C [NC10011]	> 7.30	> 100%	> 100%	> 6.30
CC[C@H]1[C@@H](O)[C@@H]2[C@H](C[C@H](O)[C@]3(C)[C@@H]([C@H](C)CCC(=O)N(CCS(=O)(=O)O)C4CCOCC4)CC[C@@H]23)[C@@]2(C)CC[C@@H](O)C[C@@H]12 [NC50008]	> 7.30	> 100%	< 20%	6.00 to 6.30
C[C@H](CCC(=O)N[C@H](CO)CS(=O)(=O)O)[C@H]1CC[C@H]2[C@@H]3CC[C@@H]4CC(=O)CC[C@]4(C)[C@H]3CC[C@]12C [NC30025]	≤ 6.70	< 20%	> 100%	5.70 to 6.00
C[C@H](CCC(=O)N1CC(S(=O)(=O)O)C1)[C@H]1CC[C@H]2[C@@H]3CC[C@@H]4C[C@H](O)CC[C@]4(C)[C@H]3CC[C@]12C [NC10063]	> 7.30	> 100%	< 20%	6.00 to 6.30
C[C@H](CCC(=O)N(CCS(=O)(=O)O)C1CCOCC1)[C@H]1CC[C@H]2[C@@H]3[C@H](O)C[C@@H]4C[C@H](O)CC[C@]4(C)[C@H]3C[C@H](O)[C@]12C [NC20008]	7.00 to 7.30	> 100%	< 20%	6.00 to 6.30
C[C@H](CCC(=O)N1CCC[C@@H](S(=O)(=O)O)C1)[C@H]1CC[C@H]2[C@@H]3CC[C@@H]4C[C@H](O)CC[C@]4(C)[C@H]3C[C@H](O)[C@]12C [NC10027]	> 7.30	> 100%	< 20%	6.00 to 6.30
C[C@H](CCC(=O)N1CC(S(=O)(=O)O)C1)[C@H]1CC[C@H]2[C@@H]3CC[C@@H]4C[C@H](O)CC[C@]4(C)[C@H]3C[C@H](O)[C@]12C [NC10028]	7.00 to 7.30	> 100%	< 20%	≤ 5.70
C[C@H](CCC(=O)N1CC[C@H](S(=O)(=O)O)C1)[C@H]1CC[C@H]2[C@@H]3CC[C@@H]4C[C@H](O)CC[C@]4(C)[C@H]3CC[C@]12C [NC10089]	≤ 6.70	20 to 50%	< 20%	> 6.30
C[C@H](CCC(=O)N1CCC[C@@H]1CS(=O)(=O)O)[C@H]1CC[C@H]2[C@@H]3CC[C@@H]4CC(=O)CC[C@]4(C)[C@H]3CC[C@]12C [NC30020]	≤ 6.70	20 to 50%	< 20%	≤ 5.70
CC[C@H]1[C@@H](O)[C@@H]2[C@H](CC[C@]3(C)[C@@H]([C@H](C)CCC(=O)N4CCC[C@H]4CS(=O)(=O)O)CC[C@@H]23)[C@@]2(C)CC[C@@H](O)C[C@@H]12 [NC40021]	≤ 6.70	50 to 100%	< 20%	6.00 to 6.30
CC(C)C[C@@H](CS(=O)(=O)O)NC(=O)CC[C@@H](C)[C@H]1CC[C@H]2[C@@H]3CC[C@@H]4C[C@H](O)CC[C@]4(C)[C@H]3C[C@H](O)[C@]12C [NC10045]	7.00 to 7.30	50 to 100%	< 20%	> 6.30
C[C@H](CCC(=O)N[C@@H](CS(=O)(=O)O)c1ccccc1)[C@H]1CC[C@H]2[C@@H]3CC[C@@H]4C[C@H](O)CC[C@]4(C)[C@H]3C[C@H](O)[C@]12C [NC10035]	≤ 6.70	50 to 100%	< 20%	6.00 to 6.30
CC[C@H]1[C@@H](O)[C@@H]2[C@H](C[C@H](O)[C@]3(C)[C@@H]([C@H](C)CCC(=O)N(C)CCS(=O)(=O)O)CC[C@@H]23)[C@@]2(C)CC[C@@H](O)C[C@@H]12 [NC50004]	6.70 to 7.00	< 20%	< 20%	≤ 5.70
C[C@H](CCC(=O)N1CCC(S(=O)(=O)O)CC1)[C@H]1CC[C@H]2[C@@H]3CC[C@@H]4C[C@H](O)CC[C@]4(C)[C@H]3CC[C@]12C [NC10062]	> 7.30	> 100%	< 20%	6.00 to 6.30
CC[C@H]1[C@@H](O)[C@@H]2[C@H](CC[C@]3(C)[C@@H]([C@H](C)CCC(=O)NC4(CS(=O)(=O)O)CC4)CC[C@@H]23)[C@@]2(C)CC[C@@H](O)C[C@@H]12 [NC40032]	≤ 6.70	< 20%	< 20%	5.70 to 6.00
CC(C)C[C@@H](CS(=O)(=O)O)NC(=O)CC[C@@H](C)[C@H]1CC[C@H]2[C@@H]3[C@H](O)C[C@@H]4C[C@H](O)CC[C@]4(C)[C@H]3C[C@H](O)[C@]12C [NC20030]	≤ 6.70	< 20%	< 20%	> 6.30
C[C@H](CCC(=O)NCCC(=O)O)[C@H]1CC[C@H]2[C@@H]3CC[C@@H]4C[C@H](O)CC[C@]4(C)[C@H]3CC[C@]12C [NC10053]	7.00 to 7.30	50 to 100%	50 to 100%	5.70 to 6.00
CC[C@H]1[C@@H](O)[C@@H]2[C@H](CC[C@]3(C)[C@@H]([C@H](C)CCC(=O)N(CCS(=O)(=O)O)C4CCOCC4)CC[C@@H]23)[C@@]2(C)CC[C@@H](O)C[C@@H]12 [NC40008]	> 7.30	> 100%	> 100%	> 6.30
C[C@H](CCC(=O)NCCN1CCOCC1)[C@H]1CC[C@H]2[C@@H]3CC[C@@H]4C[C@H](O)CC[C@]4(C)[C@H]3C[C@H](O)[C@]12C [NC10018]	7.00 to 7.30	20 to 50%	50 to 100%	≤ 5.70
